Test results as given in article PMC5236087, “A Generic Multi-Compartmental CNS Distribution Model Structure for 9 Drugs Allows Prediction of Human Brain Target Site Concentrations” (Pharmaceutical Research, 2016).
Read-outs that look alike come from different tables or passages of the source. Marks after values point to notes of the source that are not given here.

Experiments:
[1] = parameters: method as in DrugBank (http://www.drugbank.ca/); PSA: unit not given beside the values; conditions: ref DrugBank (http://www.drugbank.ca/), cited from earlier work
[2] = cited from earlier work; for fP (%), free fraction in plasma: rat data; for plasma protein binding (% bound): used to calculate free fraction in plasma
P-gp = conditions: rat; for Impact of active transport on QPL_ECF (covariate effect of inhibitor): with GF120918 or tariquidar, estimate (RSE, %)
[3] = Multi-compartmental brain PK model fitted to rat plasma and microdialysis (brainECF, CSF) data; format: in vivo; conditions: parameter estimate (RSE, %); for clearance: male, Wistar, plasma, intravenous infusion, read-out: CLPL, clearance from the central compartment
Description: An overview of experimental data for nine compounds with different physicochemical characteristics used for model development is provided in Table I. The physicochemical characteristics of the nine compounds are provided in Table SI.
Animal study protocols were approved by the Animal Ethics Committee of Leiden University and all animal experiments were performed in accordance with the Dutch Law of Animal Experimentation (for approval numbers see Table SII). […] Between surgery and experiments, the animals were kept individually in Makrolon type three cages for 7 days to recover from surgical procedures.
Rats were anesthetized (5% isoflurane for induction, 1–2% as maintenance), and subsequently received cannulas in the femoral artery for serial blood sampling, and in the femoral vein for drug administration, respectively. Subsequently, microdialysis guides were inserted into different brain locations. The animals were allowed to recover for 1 week before the experiments were performed. One day before the experiment, the microdialysis dummies were replaced by microdialysis probes. For details on guides, probes and locations see Table SII.
Experiments generally started at 9:00 a.m. to minimize the influence of circadian rhythms. Microdialysis probes were continuously flushed with microdialysis perfusion fluid (PF) until equilibration before the start of drug administration. Drugs were administered at t = 0 h by intravenous infusion through the cannula implanted in the femoral vein. […] The general procedure of microdialysis is depicted in Fig. 1.
Separate models describing plasma and brain concentration-time profiles for all nine compounds were developed whereby plasma- and brain-related parameters were estimated simultaneously. A naïve pooling approach was used ([37]), i.e. inter-individual variability in each compound’s data was not quantified, because of the highly standardized experimental settings combined with the homogeneous nature of the animals within each study.
The structural model that was used as a starting point was based on our previously developed models ([23]–[25]).
First, a combined drug dispersion parameter was estimated to capture the CSF and ECF flow and turbulence flow of the drug molecules ([38],[39]).
Second, drug transfer across the BCSFB was excluded.
We evaluated for each drug the validity of the changes to the basic model with regard to a single or two different flow rates for drug dispersion and drug transport at the BCSFB.

[4] = Fraction unbound in plasma (rat data); format: in vitro ADME; conditions: rat pooled plasma, ultrafiltration; read-out: fP (%), free fraction in plasma
Description: To determine the free fraction of paliperidone and risperidone in plasma samples, Centrifree Ultrafiltration Devices from Merck Millipore (Amsterdam, The Netherlands) were used to separate the free from the protein bound risperidone and paliperidone in pooled plasma samples. Both the ultrafiltrate and the original pooled plasma sample (without ultrafiltration step) were measured. The free fraction was calculated according to the following Eq. 1:1 Freefraction=Ultrafiltrateconcentration/Pooledplasmaconcentration

[5] = parameters: method as in PMID 4150300; conditions: human; cited from earlier work
MRPs, OATs and OATPs = assay: Effect of co-administered probenecid on drug exchange at the BBB and BCSFB; format: in vivo; conditions: rat
[6] = with probenecid, estimate (RSE, %)

Compound	No. of H acceptors [1]	No. of H donors [1]	increase of QPL_ECF in the presence of P-gp inhibitors (P-gp) [%]	Impact of active transport on QPL_ECF (covariate effect of inhibitor) (P-gp)	PSA [1]	QDIFF, drug dispersion rate in brain and CSF [3]	clearance [3] [mL/min]	log D (pH 7.4) [1]	pKa (Base) [1]	VPER1, distribution volume of the peripheral compartment 1 [3]	VPL, distribution volume of the central compartment [3]	other results
CC(C)NCC(O)COc1ccc(CC(N)=O)cc1 (stereo not drawn) [Atenolol]	4	3										
C=C[C@H]1C[N@@]2CC[C@H]1C[C@@H]2[C@@H](O)c1ccnc2ccc(OC)cc12 [Quinidine]	4	1	443	4.43 (2.80)^b	46	0.0237 (2.40) mL/min						fP (%), free fraction in plasma ([2]; ref Westerhout, 2013): 14%
CN1CC[C@]23c4c5ccc(O)c4O[C@H]2[C@@H](O)C=C[C@H]3[C@H]1C5 [Morphine]	4	2										
Cc1nc2n(c(=O)c1CCN1CCC(c3noc4cc(F)ccc34)CC1)CCCC2 [Risperidone]	4	0			62		465					fraction unbound [4]: 0.07
CC(=O)Nc1ccc(O)cc1 [Acetaminophen]	2	2			49	0.0556 (10.3) mL/min		0.5	-4.4	219 (8.90) mL	65.7 (25.4) mL	fp, free fraction in plasma [5]: 85%; fP (%), free fraction in plasma ([2]; ref Westerhout, 2011): 81%; fraction; percentage of the drug which is reabsorbed by enterohepatic circulation [3]: 93.3(1.20) %
Cc1nc2n(c(=O)c1CCN1CCC(c3noc4cc(F)ccc34)CC1)CCCC2O (stereo not drawn) [Paliperidone]	5	1	43.4	0.434 (11.4)^b	82	0.0248 (10.7) mL/min	192	2.1	8.8		28400 (8.00) mL	log P [1]: 1.8; fraction unbound [4]: 0.08
CCN1CCC[C@H]1CNC(=O)c1c(OC)ccc(Br)c1OC [Remoxipride]	4	1			51			0.7	8.4			fP (%), free fraction in plasma ([2]; ref Widman, 1993): 74%; plasma protein binding (% bound) [2]: 26%; log P [1]: 2.1; pKa (Acid) [1]: 13.1
O=C1NC(=O)C(c2ccccc2)(c2ccccc2)N1 [Phenytoin]	2	2	35.5	0.355 (25.1)^b	58	0.0133 (13.0) mL/min	44.7			5320 (7.80) mL	2890 (7.90) mL	plasma protein binding (% bound) [2]: 91%; QDIFF, drug dispersion rate in brain and CSF ([3]; listed as phenytoin): 0.0133 mL/min
CN(Cc1cnc2nc(N)nc(N)c2n1)c1ccc(C(=O)N[C@@H](CCC(=O)O)C(=O)O)cc1 [Methotrexate]	12	5			211	0.0598 (9.30) mL/min	8.12	-2.5	2.8	210 (7.20) mL	51.2 (20.3) mL	fP (%), free fraction in plasma ([2]; ref Westerhout, 2014): 45%; increase of QPL_ECF in the presence of the inhibitor of MRPs, OATs and OATPs (MRPs, OATs and OATPs): 409%; Impact of active transport on QLV_PL (covariate effect of inhibitor) (MRPs, OATs and OATPs; [6]): 0.410 (16.0)^a; Impact of active transport on QPL_ECF (covariate effect of inhibitor) (MRPs, OATs and OATPs; [6]): 4.09 (3.7)^a; pKa (Acid) [1]: 3.4; VPER2, distribution volume of the peripheral compartment 2 [3]: 114 (6.60) mL; QDIFF, drug dispersion rate in brain and CSF ([3]; listed as methotrexate): 0.0598 mL/min
